Assay results reported in patent publication US20190077795A1, “ARGININE […] INHIBITORS AND USES THEREOF” (Epizyme, Inc., priority 2014, published 2019).
Where two headings read alike, the source gives them in different places.

Legend:
[1] = test system: mono-methyl arginine in RKO cells; assay: RKO Methylation Assay, In Cell Western (ICW); format: cell-based; conditions: 72 hours
Excerpt: RKO adherent cells were purchased from ATCC (American Type Culture Collection), Manassas, Va., USA. DMEM/Glutamax medium, penicillin-streptomycin, heat inactivated fetal bovine serum, 0.05% trypsin and D-PBS were purchased from Life Technologies, Grand Island, N.Y., USA. Odyssey blocking buffer, 800CW goat anti-rabbit IgG (H+L) antibody, and Licor Odyssey infrared scanner were purchased from Licor Biosciences, Lincoln, Nebr., USA. Mono-methyl arginine antibody was purchased from Cell Signaling Technology, Danvers, Mass., USA. Methanol was purchased from VWR, Franklin, Mass., USA. 10% Tween 20 was purchased from KPL, Inc., Gaithersburg, Md., USA. DRAQ5 was purchased from Biostatus Limited, Leicestershire, UK.
RKO adherent cells were maintained in growth medium (DMEM/Glutamax medium supplemented with 10% v/v heat inactivated fetal bovine serum and 100 units/mL penicillin-streptomycin) and cultured at 37° C. under 5% CO2.
Cell treatment, In Cell Western (ICW) for detection of mono-methyl arginine and DNA content.
Compound (100 nL) from a 96-well source plate was added directly to 384 well cell plate. Plates were incubated at 37° C., 5% CO2 for 72 hours. After three days of incubation, plates were brought to room temperature outside of the incubator for ten minutes and blotted on paper towels to remove cell media. 50 μL of ice cold 100% methanol was added directly to each well and incubated for 30 min at room temperature. After 30 min, plates were transferred to a Biotek EL406 plate washer and washed 2 times with 100 μL per well of wash buffer (1×PBS). Next 60 μL per well of Odyssey blocking buffer (Odyssey Buffer with 0.1% Tween 20 (v/v)) were added to each plate and incubated 1 hour at room temperature. Blocking buffer was removed and 20 μL per well of primary antibody was added (mono-methyl arginine diluted 1:200 in Odyssey buffer with 0.1% Tween 20 (v/v)) and plates were incubated overnight (16 hours) at 4° C. Plates were washed 5 times with 100 μL per well of wash buffer. […] The plates were washed 5 times with 100 μL per well wash buffer then 2 times with 100 μL per well of water. Plates were allowed to dry at room temperature then imaged on the Licor Odyssey machine which measures integrated intensity at 700 nm and 800 nm wavelengths. Both 700 and 800 channels were scanned.
First, the ratio for each well was determined by:
Each plate included fourteen control wells of DMSO only treatment (minimum activation) as well as fourteen control wells for maximum activation treated with 20 μM of a reference compound. The average of the ratio values for each control type was calculated and used to determine the percent activation for each test well in the plate. Reference compound was serially diluted three-fold in DMSO for a total of nine test concentrations, beginning at 20 μM. Percent activation was determined and EC30 curves were generated using triplicate wells per concentration of compound.

human PRMT1 = molecular target: T1, human PRMT1 (Homo sapiens, UniProt Q99873); assay: PRMT1 Biochemical Assay; conditions: peptide substrate, 3H-SAM Flashplate assay; read-out: PRMT1 IC50
T1 construct: GST-tagged PRMT1; made in house; host or cells: High Five insect cells (baculovirus, pFastBac1)
Excerpt: (§1) S-adenosylmethionine (SAM), S-adenosylhomocysteine (SAH), bicine, Tween20, dimethylsulfoxide (DMSO), bovine skin gelatin (BSG), and Tris(2-carboxyethyl)phosphine hydrochloride solution (TCEP) were purchased from Sigma-Aldrich at the highest level of purity possible. ^3H-SAM was purchase from American Radiolabeled Chemicals with a specific activity of 80 Ci/mmol. 384-well streptavidin Flashplates were purchased from PerkinElmer.
Recombinant baculovirus were generated according to Bac-to-Bac kit instructions (Life Technologies). […] Infections were carried out at 27° C. for 48 hours, harvested by centrifugation, and stored at −80° C. for purification.
GST-tagged PRMT1 was eluted with 50 mM Tris, 2 mM glutathione, pH 7.8, dialysed in buffer A and concentrated to 1 mg/mL.
General Procedure for PRMT1 Enzyme Assays on Peptide Substrates.
(§2) The assays were all performed in a buffer consisting of 20 mM Bicine (pH=7.6), 1 mM TCEP, 0.005% BSG, and 0.002% Tween 20, prepared on the day of use. […] DMSO (1 ul) was added to Columns 11, 12, 23, 24, rows A-H for the maximum signal control and 1 ul of SAH, a known product and inhibitor of PRMT1, was added to columns 11, 12, 23, 24, rows I-P for the minimum signal control. A cocktail (40 ul) containing the PRMT1 enzyme was added by Multidrop Combi (Thermo-Fisher). The compounds were allowed to incubate with PRMT1 for 30 min at room temperature, then a cocktail (10 ul) containing SAM and peptide was added to initiate the reaction (final volume=51 ul). […] The assays were stopped by the addition of non-radiolabeled SAM (10 ul) to a final concentration of 300 uM, which dilutes the ^3H-SAM to a level where its incorporation into the peptide substrate is no longer detectable. 50 ul of the reaction in the 384-well polypropylene plate was then transferred to a 384-well Flashplate and the biotinylated peptides were allowed to bind to the streptavidin surface for at least 1 hour before being washed once with 0.1% Tween20 in a Biotek ELx405 plate washer. The plates were then read in a PerkinElmer TopCount plate reader to measure the quantity of ^3H-labeled peptide bound to the Flashplate surface, measured as disintegrations per minute (dpm) or alternatively, referred to as counts per minute (cpm).
(§3) Where dpm=disintegrations per minute, cmpd=signal in assay well, and min and max are the respective minimum and maximum signal controls.
(§4) Where top and bottom are the normally allowed to float, but may be fixed at 100 or 0 respectively in a 3-parameter fit. The Hill Coefficient normally allowed to float but may also be fixed at 1 in a 3-parameter fit. Y is the % inhibition and X is the compound concentration.

human PRMT6 = molecular target: T2, human PRMT6 (Homo sapiens, UniProt Q96LA8); assay: PRMT6 Biochemical Assay
T2 construct: Flag-PRMT6-His; made in house; host or cells: HEK 293F cells (BacMam baculovirus, pFastBacMam)
Excerpt: as §1, with “(BSG), sodium butyrate” for “(BSG),”
Peptide representative of human histone H4 residues 36-50 was synthesized with an N-terminal linker-affinity tag motif and a C-terminal amide cap by 21st Century Biochemicals.
The amplified gene was subcloned into pFastBacMam (Viva Biotech).
Recombinant baculovirus were generated according to Bac-to-Bac kit instructions (Life Technologies). […] Infections were carried out at 37° C. for 48 hours, harvested by centrifugation, and stored at −80° C. for purification.
Column was washed with 20 mM imidazole in the same buffer and Flag-PRMT6-His was eluted with 150 mM imidazole. Pooled fractions were dialysed against buffer Ni-A and further purified by anti-flag M2 affinity chromatography. Flag-PRMT6-His was eluted with 200 ug/ml FLAG peptide in the same buffer. Pooled fractions were dialysed in 20 mM Tris, 150 mM NaCl, 10% glycerol and 5 mM β-mercaptoethanol, pH 7.8.
General Procedure for PRMT6 Enzyme Assays on Peptide Substrates.
as §2, with “PRMT6,” for “PRMT1,”, “PRMT6” for “PRMT1”, “400” for “300”
as §3, §4

human PRMT8 = human PRMT8 (Homo sapiens, UniProt Q9NR22); assay: PRMT8 Biochemical Assay; conditions: PRMT8 IC50 (uM), peptide substrate, 3H-SAM Flashplate assay
[2] = peptide substrate, 3H-SAM Flashplate assay, read-out: PRMT6 IC50

human PRMT8, sequence (Q9NR22 whole entry): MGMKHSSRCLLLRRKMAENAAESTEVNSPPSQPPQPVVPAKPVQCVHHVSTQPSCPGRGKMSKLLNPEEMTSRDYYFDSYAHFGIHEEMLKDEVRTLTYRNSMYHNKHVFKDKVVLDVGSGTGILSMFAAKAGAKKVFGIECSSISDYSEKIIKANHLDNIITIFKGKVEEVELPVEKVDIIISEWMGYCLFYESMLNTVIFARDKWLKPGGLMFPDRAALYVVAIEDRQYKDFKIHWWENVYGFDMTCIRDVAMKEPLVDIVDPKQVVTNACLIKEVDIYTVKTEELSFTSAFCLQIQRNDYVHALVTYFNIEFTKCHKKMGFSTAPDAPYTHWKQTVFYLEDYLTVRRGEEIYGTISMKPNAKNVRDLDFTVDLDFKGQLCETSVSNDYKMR
T1 sequence (Q99873 with tags, fused parts or gaps): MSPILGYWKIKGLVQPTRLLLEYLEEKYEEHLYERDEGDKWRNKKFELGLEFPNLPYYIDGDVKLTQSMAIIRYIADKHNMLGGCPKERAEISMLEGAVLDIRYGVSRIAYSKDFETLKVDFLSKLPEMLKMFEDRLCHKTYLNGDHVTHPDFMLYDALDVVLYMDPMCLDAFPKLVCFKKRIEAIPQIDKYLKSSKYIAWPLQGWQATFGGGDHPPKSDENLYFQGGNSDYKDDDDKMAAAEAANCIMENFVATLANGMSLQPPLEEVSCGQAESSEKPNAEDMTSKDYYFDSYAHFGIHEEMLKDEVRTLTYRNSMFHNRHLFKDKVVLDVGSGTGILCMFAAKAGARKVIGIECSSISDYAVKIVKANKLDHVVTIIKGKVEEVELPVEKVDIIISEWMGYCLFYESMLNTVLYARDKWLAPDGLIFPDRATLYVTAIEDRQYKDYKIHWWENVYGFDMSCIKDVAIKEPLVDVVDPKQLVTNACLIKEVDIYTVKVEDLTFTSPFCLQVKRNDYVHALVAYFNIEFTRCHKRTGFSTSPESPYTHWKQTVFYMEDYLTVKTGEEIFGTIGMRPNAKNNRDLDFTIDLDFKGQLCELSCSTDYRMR
T2 sequence (Q96LA8 with tags, fused parts or gaps): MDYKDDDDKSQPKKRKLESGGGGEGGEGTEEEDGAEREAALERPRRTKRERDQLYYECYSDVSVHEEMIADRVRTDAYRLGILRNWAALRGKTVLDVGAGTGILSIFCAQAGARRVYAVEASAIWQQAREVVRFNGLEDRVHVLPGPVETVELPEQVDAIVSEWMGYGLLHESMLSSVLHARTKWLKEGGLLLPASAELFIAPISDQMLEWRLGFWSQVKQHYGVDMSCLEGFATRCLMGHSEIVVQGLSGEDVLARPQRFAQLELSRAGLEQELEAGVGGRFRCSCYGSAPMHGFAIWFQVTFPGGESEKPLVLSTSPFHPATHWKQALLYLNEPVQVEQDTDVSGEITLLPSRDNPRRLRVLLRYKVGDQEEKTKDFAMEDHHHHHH

SMILES	IC50 (human PRMT1) [µM]	IC50 (human PRMT8) [µM]	IC50 (human PRMT6; [2]) [µM]	ICW EC30 [1] [µM]	IC50 (human PRMT6; PRMT6 IC50 (uM)) [µM]
CCC(CC)Oc1ccc(-n2nc(C)cc2CN(C)CCNC)cc1 [Compound 65]	0.0141	0.0299	–	0.2156	0.136
CNCCN(C)Cc1c[nH]nc1-c1ccc(OCCOc2cccc(OCCN3CCOCC3)c2)cc1 [Compound 8]	0.00491	0.00939	0.00449	0.2337	–
CNCCN(C)Cc1c[nH]nc1-c1ccc(OCCOc2ccc(Oc3ccccc3)cc2)cc1 [Compound 6]	0.00479	0.0192	0.00343	0.3282	–
CNCCN(C)Cc1c[nH]nc1-c1ccc(C#N)cc1 [Compound 74]	0.0161	0.0231	–	0.541	0.027
CNCCN(C)Cc1c[nH]nc1-c1cc(C)c(OCC2CC2)c(C(F)(F)F)c1 [Compound 43]	0.00897	0.015	–	0.475	0.0326
CNCCN(C)Cc1c[nH]nc1-c1cc(Cl)c(OCC(C)C)c(Cl)c1 [Compound 1]	0.00351	0.0173	–	0.38	0.0104
CNCCN(C)Cc1c[nH]nc1-c1cc(F)c(OCC2CC2)c(C(F)(F)F)c1 [Compound 3]	0.00398	0.0219	0.0195	0.664	–
CNCCN(C)Cc1c[nH]nc1-c1ccc(N(C)CC(C)C)cc1 [Compound 102]	0.0319	0.0819	–	1.057	0.236
CNCCN(C)Cc1cnn(CCOC)c1-c1ccc(OC(C)C)cc1 [Compound 97]	0.0282	0.0601	–	1.994	0.106

More lines, main results first:

IC50 (human PRMT1) [µM]	IC50 (human PRMT8) [µM]	IC50 (human PRMT6; [2]) [µM]	SMILES	ICW EC30 [1] [µM]	IC50 (human PRMT6; PRMT6 IC50 (uM)) [µM]
0.0198	0.171	0.105	CNCCN(C)Cc1c[nH]nc1-c1cnc(OCCOC)c(C(F)(F)F)c1 [Compound 79]	2.611	–
0.00764	0.0244	0.00635	CNCCN(C)Cc1c[nH]nc1-c1ccc(OCCOc2ccc(N3CCOCC3)cc2)cc1 [Compound 36]	0.1271	–
0.0443	0.413	0.107	CN(CCN)Cc1c[nH]nc1-c1ccc(N2CCOCC2)cc1 [Compound 124]	3.978	–
0.00675	0.037	0.0214	CNCCN(C)Cc1c[nH]nc1-c1cc(F)c(Cl)c(C(F)(F)F)c1 [Compound 27]	0.377	–
0.0225	0.0686	0.0196	CNCCN(C)Cc1c[nH]nc1-c1ccc(OC2CCC(OC)CC2)cc1 (stereo not drawn) [Compound 86]	0.836	–
0.0658	0.056	0.0869	CNCCN(C)Cc1cnn(C2CCC2)c1-c1ccc(OC(C)C)cc1 [Compound 141]	0.496	–
0.0297	0.127	0.0633	CNCCN(C)Cc1c[nH]nc1-c1ccc(N2CCCC2=O)cc1 [Compound 99]	3.944	–
0.0162	0.0487	0.0495	CNCCN(C)Cc1ccnn1-c1ccc(OCC2CC2)cc1 [Compound 75]	0.5381	–
0.0475	0.0877	0.219	CNCCN(C)Cc1cnn(C)c1-c1cccc(CC(C)C)c1 [Compound 129]	7.415	–
0.0267	0.108	5.13	CNCCN(C)Cc1c[nH]nc1-c1cc(OCCOC)cc(OC(F)(F)F)c1 [Compound 96]	1.762	–
0.00669	0.0258	0.00448	CNCCN(C)Cc1c[nH]nc1-c1ccc(OCCOc2cccc(CO)c2)cc1 [Compound 143]	0.5443	–
0.0381	0.0836	0.59	CCC(CC)Oc1ccc(-n2ncc(C)c2CN(C)CCNC)cc1 [Compound 114]	1.855	–
